Here are results for 6 compounds from patent US9326993B2, “Treatment of pulmonary and pleural fibrosis using HSP27 inhibitors” (ONCOGENEX TECHNOLOGIES INC., priority 2011, dated 2016).

Residues, ends and D or L forms follow the SMILES beside them. *: point of attachment. e = 2'-O-(2-methoxyethyl) (MOE); Cbz = O=C(OCc1ccccc1)*; d = 2'-deoxy (DNA)

For data set [1], the system named is HSP27. The note with it: cited from earlier work.
Data set [2] concerns human mesothelial Met-5A cells. Briefly: rTGF-β1-induced EMT in Met-5A cells (western blot, RT-PCR). The data set is classed as cell-based. The conditions noted are these: HSP27 siRNA-depleted cells plus proteasome inhibitor. The protocol: Mesothelial rat established cell line 4/4 RM4 cells (American Type Culture Collection—ATCC—Rockville, Md.) were seeded in Ham's F10 (Lonza), with FBS 15%. Mesothelial human established cell line MET-5A (ATCC) were seeded in Medium 199 (lonza), 1% L-glutamine, 1% penicillin-streptomycin with 10% FBS. Epithelial human cell line A549 cells (ATCC) and were seeded in Ham's F10 (lonza) with 10% FBS.
For EMT induction and analysis, all the different cells were exposed to their respective medium containing 10 ng/ml recombinant (r)TGF-β1 (R&D system, Lille, France) for 6, 12, 24, or 48 hours.
HSP27 siRNA were purchased from applied bios system (Courtaboeuf, France). The sense and antisense sequence were respectively: 5′-GUUCAAAGCAACCACCUGUtt-3 (SEQ ID No: 4)′ and 5′-ACAGGUGGUUGCUUUGAACtt-3′. (SEQ ID No: 5). They were used at a concentration of 50 nM. SiRNA were transfected using INTERFERin (polyplus, Illkirch, France) following the manufacturer recommendations. 5-6 hours after transfection medium were changed and cells were treated or not with 10 ng/ml TGF-β1 for 12, 24 or 48 hours. Seq ID No. 3 was used as a random control oligonucleotide.
(§1) Protein extraction was made using triton X 100 during 30 min at 4° C., vortexing every 10 min. Protein dosage is made with the modified lowry kit (Biorad, Marne-la-Coquette, France). Equal amounts of protein (30-50 μg) were electrophoresed through 8 to 12% SDS polyacrylamide gels. The separate protein bands were transferred onto a PVDF membrane. The non-specific sites were saturated with a solution of PBS-tween 0.1%, nonfat milk 8%. Membranes were incubated with primary Abs over night at 4° C. Secondary Abs IgG linked to HRP (HorseRadish Peroxidase, Jackson ImmunoResearch Laboratories, PA, USA) were used at a concentration of 1/5000. Enhanced ChemiLuminescent substrat (ECL, santa cruz biotechnology, CA, USA) was used to detect the protein of interest. […]
Total RNA was extracted using TRIzol (Invitrogen, Cergy Pontoise, France) from MET-5A and A549 cells treated or not with rTGF-β1 12 or 24 hours and transfected or not by HSP27 siRNA or plasmid encoding HSP27. […] Quantitative RT-PCR was performed on the cDNA using the SYBR green master mix (promega, Charbonnieres, France). […]
In general terms: In western blotting, separated proteins are transferred to a membrane and probed.

The subject of data set [3] is AdTGF-β1 induced pleural and subpleural fibrosis model in rats. Briefly: AdTGF-β1 induced pleural and subpleural fibrosis model. The data set is classed as in vivo, rat. The note with it: for reduction in the lungs volume compared to AdDL administered animals: RCL2 volume, 10 min at 20 cm H20. An excerpt: For experiments on pleural fibrosis we used AdTGF-β1223/225, an adenovirus construct with a mutant TGF-β1 translated into spontaneously bioactive TGF-β1 (AdTGFβ1) and control vectors (AdDL) with no insert in the deleted E1 region. The construction of adenoviral vectors is described in detail elsewhere (DeCologne, 2007, supra; Bett et al. Proc Natl Acad Sci USA 1994; 91:8802-6; Sime et al., J Clin Invest 1997; 100:768-76)
Female Sprague-Dawley rats (Charles River Laboratories) weighing 200-225 g were housed in special pathogen-free conditions. Rodent laboratory food and water were provided ad libitum. The animals were treated in accordance to the guidelines of the Ministère de la Recherche et de laTechnologie (Paris, France). All experiments were approved by the Comitéd'Ethique de l'Universite´ de Bourgogne (Bourgogne, France). All animal procedures were performed with inhalation anesthesia with isoflurane (TEM, Lormont, France). Adenovector administrations were performed by intrapleural injection in 800 μl of NaCl0.9% containing a total of 1.3×10^9 PFU AdTGF-β1, AdDL or AdLacZ. The intrapleural injection protocol was described in details elsewhere (DeCologne, 2007, supra)).
12 mg/kg of control ASO and OGX-427 were daily administrated by intrapleural injection during 5 days after adenoviral administration. Rats were euthanized by abdominal aortic bleeding and lungs were harvested and processed following what was previously described in Decologne et al (DeCologne, 2007, supra)).
Immunohistochemitry: Inflated lungs were transversally cut and paraffin embedded. 5 μm section were performed and stain with primary antibodies (Ab), Mouse monoclonal anti-α-SMA (Sigma, St Quentin Fallavier, France, 1/200), rabbit polyclonal anti-HSP27 (EnzoLife Science, Villeurbanne, France, 1/200) and rabbit polyclonal cleaved caspase 3 (cell signaling, Saint Quentin, France, 1/100). Secondary Abs used were respectively, a goat anti-mouse IgG biotin conjugated and a goat anti-rabbit IgG biotin conjugated. After peroxidase inhibition (PBS plus H2O2, 20 min), lung section were incubated over night at 4° C. with primary ab. Tissue section were after PBS 1× (Phosphate Buffer Saline) wash incubated with the secondary ab (1/500) 45 min. The streptavidin-HRP complex (Jackson ImmunoResearch Laboratories, PA, USA, 1/500) was used 45 min at room temperature. 3-Amino-9-ethylcarbazole/hydrogen peroxide was used as chromagen substrate. Slides were counterstained with hematoxylin.
Total human TGF-β1 was determined from pleural lavage fluid (PLF) using ELISA (R&D Systems, Lille, France), performed according to the recommendations of the manufacturer. The sensitivity of this assay was 7 pg·mL-1.
To assess the role of HSP27 inhibition in the process of fibrogenesis in vivo, we administered OGX427 or its control ASO in the pleural cavity in our AdTGF-β1 induced pleural and subpleural fibrosis model in rats. The concentrations of ASO control and OGX-427 used were those previously described in studies of bladder cancer where the oligonucleotides were administered intra-vesically. (Matsui et al. Mol Cancer Ther 2009; 8:2402-11)
After AdTGF-β1 or AdDL intrapleural administration, rats were daily treated with the ASO control or OGX427 during […] by intra pleural injection. We first confirmed by an ELISA technique that the content on TGF-β1 after AdTGF-β1 intrapleural administration was similar in the pleural lavage fluid (PLF) from all rats, those treated with OGX427 and those treated with a control ASO (FIG. 4A). […] (FIG. 4B)
To determine lung activity, lung volumes were assessed by measuring the volume of RCL2 (fixation solution) that drained into the lungs after 10 min at a constant pressure of 20 cm H20. Compared to AdDL administered animals, AdTGF-β1 administration in ASO control rats induced a reduction in the lungs volume of 55%. […] This effect for the HSP27 inhibitor was only observed in the TGF-β1-exposed animals. […]

Data set [4] relates to human mesothelial Met-5A cells. As to the kind of experiment: Induction of HSP27 overexpression in Met-5A cells. It counts as cell-based. An excerpt:
To study the involvement of HSP27 in the EMT process, we induced the overexpression of HSP27 in the human mesothelial Met-5A cells by three different methods: heat shock, staurosporine treatment, and transfection with a plasmid encoding HSP27. […] (Brunet Simioni et al., Oncogene 2009; 28:3332-44) A more specific overexpression was obtained by HSP27 cDNA transfection. […] Conversely, siRNA-meditated depletion of HSP27 inhibits rTGF-β1 induced α-SMA in human […] Met-5A cells and epithelial A549 cells. This decrease in α-SMA content induced by HSP27 depletion seems to be, at least in part, the result of its proteasomal degradation because in the presence of an inhibitor of the proteasome, such as MG132, α-SMA levels were restored

Data set [5] deals with Mesothelial rat primary cells. As to the kind of experiment: Spontaneous EMT of primary mesothelial cells over culture passages. It counts as cell-based. The protocol:
For primary cell harvesting, 8 ml of HBSS (Lonza, Paris, France) were injected in the pleural cavity through the diaphragm then removed and followed by a 10 ml trypsin 5%, EDTA 0.4% administration for 30 min. This lavage was removed and placed in 30 ml of DMEM (Dulbecco's Modified Eagle Medium, Lonza) with 15% FBS (Fetal Bovine Serum, Lonza). After centrifugation (1300 rpm, 5 minutes), the cell pellet was re-suspended into 5 ml DMEM, FBS 15% and placed at 37° C., 5% CO2.
Mesothelial rat primary cells were grown in Dulbecco's Modified Eagle's Medium (DMEM) 1% L-glutamine, 1% penicillin-streptomycin with 15% Fetal Bovine Serum (FBS. Lonza, Paris, France). Cells were assessed before culture and from passage 1 to 4.
as §1

For `CC(=O)O[C@H]1C(=O)[C@@]2(C)[C@H]([C@H](OC(=O)c3ccccc3)[C@]3(O)C[C@H](OC(=O)[C@H](O)[C@@H](NC(=O)c4ccccc4)c4ccccc4)C(C)=C1C3(C)C)[C@]1(OC(C)=O)CO[C@@H]1C[C@@H]2O` [Paclitaxel], in data set [1], the HSP27 expression/levels entry is given as “inhibitor of hsp27 expression”.
With `CC(C)C[C@@H](C=O)NC(=O)[C@H](CC(C)C)NC(=O)[C@H](CC(C)C)NC(=O)OCc1ccccc1` [MG132] (Cbz-Leu-Leu-Leu-aldehyde), the “α-SMA levels after HSP27 depletion” value in data set [2] is “restored”.
With “interferon-γ: cytokine shown to downregulate expression of HSP27”, in data set [1], the HSP27 expression/levels entry is reported as “downregulate expression of HSP27”.
Take “ASO control: control oligonucleotide having the sequence CCTTCCCTGAAGGTTCCTCC, also known as ISIS 141923 (listed as DNA, chemistry not given here)”: the “reduction in the lungs volume compared to AdDL administered animals” value in data set [3] (AdTGF-β1 rats) is on record as 55%.
`CN[C@@H]1C[C@H]2O[C@@](C)([C@@H]1OC)n1c3ccccc3c3c4c(c5c6ccccc6n2c5c31)C(=O)NC4` [staurosporine]: the HSP27 induction entry in data set [4] is “efficient inducers of HSP27”. Further, in data set [4] (after HSP27 overexpression), the α-SMA expression/content result was “increase”.
With “OGX-427: 4-12-4 2′-MOE gapmer antisense oligonucleotide with phosphorothiolated linkages targeting HSP27, made by OncoGenex (Seq. ID No. 2) (antisense GGGACGCGGCGCTCGGTCAT; sugars from the 5' end e4 d12 e4, all C 5-methyl, all phosphorothioate, T or U not given here; listed as Homo sapiens)”, in data set [3] (AdDL rats (no TGF-β1)), the “lung volumes in AdDL-administered animals, ASO control vs OGX 427” value is “no difference”. Further, in data set [3] (AdTGF-β1 + AdLacZ rats), the “mesothelial cell migration within the subpleural parenchyma” value is listed as “no mesothelial cell migration” and the “morphology of the mesothelial cells” value is on record as “did not change”. Moreover, in data set [3] (AdTGF-β1 rats), the “pleural fibrosis (histological evaluation)” value is given as “minor pleural fibrosis” and the “reduction in the lungs volume compared to AdDL administered animals” value is given as 35%. In data set [3] (AdTGF-β1 rats, histology), the “HSP27 expression in lungs” value is on record as “very significant decrease” and the “α-SMA expression in lungs” value was “very significant decrease”. Further, the “pleural collagen quantified from microscopic images” value in data set [3] (AdTGF-β1 rats, vs control antisense) is given as “substantial reduction”. Also, the “HSP27 expression in PLF (western blot)” value in data set [3] (AdTGF-β1 rats, intra-pleural administration) is recorded as “strongly blocked”. The “TGF-β1 content in pleural lavage fluid (ELISA)” value in data set [3] (after AdTGF-β1 intrapleural, 12 mg/kg daily intrapleural, vs control ASO) was “similar”. For the same compound, in data set [3] (collagen in parenchymal subpleural areas), the “amount of fibrosis in the pulmonary parenchyma” value is “reduces the amount of fibrosis”. In data set [5] (vs ASO control), the “increased expression of HSP27 with cell passages” value is on record as “blocked” and the “increased expression of α-SMA with cell passages” value was “blocked”. For the same compound, in data set [5] (vs control ASO), the “cell shape (mesothelial phenotype)” value is “kept their mesothelial phenotypic shape”.
